Like-named read-outs stand apart in the source and are kept apart here.
What was measured:
[1] = target: JAK3 (a.a. 781-1124) (Homo sapiens (Human), UniProt P52333); experiment: JAK3 enzyme activity assay (SRCtide phosphorylation, Caliper); format: biochemical; conditions: 2.5 nM JAK3, 1 μM SRCtide, 1 uM ATP, 40 minutes; read-out: JAK3 Inhibition IC50
Method: The activity of JAK3 (a.a. 781-1124, ThermoFisher) was quantified by measuring the phosphorylation of SRCtide (FAM-GEEPLYWSFPAKKK-NH2). Kinase reactions were run in a 384-well Greiner plate with 2% final DMSO concentration under the buffer conditions of 20 mM HEPES, pH 7.5, 10 mM MgCl2, 0.01% BSA, and 0.0005% Tween-20. The kinase reaction components were 2.5 nM JAK3, 1 μM SRCtide peptide and 1 uM ATP. Examples were tested in dose-response starting at 2 μM (11 concentrations, 3-fold serial dilution, duplicate reactions). The reactions were incubated at room temperature for 40 minutes, then stopped by adding a 1:1 volume of 30 mM EDTA in 20 mM HEPES, pH 7.5 (15 mM EDTA final). After the reaction was stopped, the phosphorylated and unphosphorylated peptides were separated and quantified using a Caliper LC3000/EZ-Reader system and HTS Well Analyzer Software (Caliper, A PerkinElmer Company, Hopkinton, Mass.). GraFit (Erithacus Software Ltd., Horley, U.K.) was used to calculate inhibitor potency by fitting dose-response data to the 4-parameter logistical IC50 equation.
(§1) Background signal is defined in the absence of enzyme and uninhibited signal is defined in the presence of vehicle (2% DMSO) alone. Compounds were evaluated in an 11 point dose-response ranging from […] to 0.34 nM. IC50 values of compounds are determined using a 4 parameter logistical fit of emission ratio as a function of the concentration of compound.

[2] = target: JAK1 (Homo sapiens (Human), UniProt P23458); experiment: JAK1 enzyme activity assay (Thermo Fisher SelectScreen Z-lyte); format: biochemical; conditions: 1 hour kinase reaction, read-out: JAK1 Inhibition IC50
Method: The inhibitory potency of candidate compounds of JAK1 done at Thermo Fisher Scientific in their Selectscreen using a Z-lyte assay. The 2×JAK1/Tyr 06 mixture is prepared in 50 mM HEPES pH 6.5, 0.01% BRIJ-35, 10 mM MgCl2, 1 mM EGTA, 0.02% NaN3. The final 10 μL of the Kinase Reaction consists of 21.2-91.5 ng JAK1 and 2 μM Tyr 06 in 50 mM HEPES pH 7.0, 0.01% BRIJ-35, 10 mM MgCl2, 1 mM EGTA, 0.01% NaN3. After the 1 hour Kinase Reaction incubation, 5 μL of a 1:128 dilution of Development Reagent is added.
as §1

[3] = tested on: IL-2 stimulated STAT5 phosphorylation on Tyr694 (JAK1/3); experiment: JAK1/3 cellular target modulation: IL-2 stimulated phospho-STAT5 in PBMC; format: cell-based; conditions: IL-2 25 ng/ml, 1 hour compound preincubation, read-out: IL2-STAT5 Inhibition IC50
Excerpt: (§2) Target modulation was based upon the ability of a compound to inhibit JAK isoform specific phosphorylation of selected substrates. IL-2 stimulated STAT5 phosphorylation on Tyr694 was used to assess JAK1/3 compound selectivity. GM-CSF stimulated STAT5 phosphorylation on Tyr694 was used to assess JAK2 compound selectivity. IFNγ stimulated STAT1 phosphorylation on Tyr701 was used to assess JAK1/2 compound selectivity. For all three assays, human PBMC from frozen stocks were thawed, pelleted, resuspended in complete media (90% RPMI, 10% heat inactivated FBS, 10 mM HEPES, 47 μM 2-ME, pen/strep) and placed in wells of a 96 well V-bottom plate at 200,000 per well in 120 μl complete media. Compounds were added as 15 μl per well of 10× working stock solutions in complete media with 1% DMSO (or medium with 1% DMSO for controls) and placed on a plate shaker in a 37° C. incubator with 5% CO2 for 1 hour with gentle shaking (setting of 3). Stimulation used the addition of soluble cytokines. For the JAK1/3 phospho-STAT5 assay, 15 μl of 10× working stock recombinant human IL-2 was added to a final concentration of 25 ng/ml. For the JAK2 phospho-STAT5 assay, 15 μl of 10× working stock recombinant human GM-CSF was added to a final concentration of 5 ng/ml. For the JAK1/2 phospho-STAT1 assay, 15 μl of 10× working stock of recombinant human IFNγ was added to a final concentration of 10 ng/ml. Plates were then placed back on the plate shaker in the incubator for an additional 5, 5 and 10 minutes respectively upon which the plates were removed from the incubator, sealed with a plate sealer and the cells pelleted at 400×g for 5 minutes. After pelleting, the media was removed by aspiration and the cells were lysed in ELISA specific cell lysis buffer. The levels of phospho-STAT5 were determined using a Phospho (Tyr694)/Total STAT5a,b Whole Cell Lysate kit from Meso Scale Discovery. Levels of phospho-STAT1 were determined using a CST-PathScan Phospho-STAT1 (Tyr701) Sandwich ELISA kit.

[4] = tested on: IFNγ stimulated STAT1 phosphorylation on Tyr701 (JAK1/2); experiment: JAK1/2 cellular target modulation: IFNγ stimulated phospho-STAT1 in PBMC; format: cell-based; conditions: IFNγ 10 ng/ml, 1 hour compound preincubation, read-out: Infγ-STAT1 IC50
Excerpt: as §2

JAK3 (a.a. 781-1124), sequence (P52333 781-1124): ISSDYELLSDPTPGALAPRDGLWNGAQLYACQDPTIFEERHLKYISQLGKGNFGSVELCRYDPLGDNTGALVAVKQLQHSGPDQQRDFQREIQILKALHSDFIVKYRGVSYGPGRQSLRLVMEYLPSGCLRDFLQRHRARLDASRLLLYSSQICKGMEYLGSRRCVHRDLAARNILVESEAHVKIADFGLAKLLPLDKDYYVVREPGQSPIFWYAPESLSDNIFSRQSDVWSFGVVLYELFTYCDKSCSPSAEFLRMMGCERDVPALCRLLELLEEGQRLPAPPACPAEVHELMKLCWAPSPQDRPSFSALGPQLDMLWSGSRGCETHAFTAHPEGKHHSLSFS
JAK1, sequence (P23458 whole entry): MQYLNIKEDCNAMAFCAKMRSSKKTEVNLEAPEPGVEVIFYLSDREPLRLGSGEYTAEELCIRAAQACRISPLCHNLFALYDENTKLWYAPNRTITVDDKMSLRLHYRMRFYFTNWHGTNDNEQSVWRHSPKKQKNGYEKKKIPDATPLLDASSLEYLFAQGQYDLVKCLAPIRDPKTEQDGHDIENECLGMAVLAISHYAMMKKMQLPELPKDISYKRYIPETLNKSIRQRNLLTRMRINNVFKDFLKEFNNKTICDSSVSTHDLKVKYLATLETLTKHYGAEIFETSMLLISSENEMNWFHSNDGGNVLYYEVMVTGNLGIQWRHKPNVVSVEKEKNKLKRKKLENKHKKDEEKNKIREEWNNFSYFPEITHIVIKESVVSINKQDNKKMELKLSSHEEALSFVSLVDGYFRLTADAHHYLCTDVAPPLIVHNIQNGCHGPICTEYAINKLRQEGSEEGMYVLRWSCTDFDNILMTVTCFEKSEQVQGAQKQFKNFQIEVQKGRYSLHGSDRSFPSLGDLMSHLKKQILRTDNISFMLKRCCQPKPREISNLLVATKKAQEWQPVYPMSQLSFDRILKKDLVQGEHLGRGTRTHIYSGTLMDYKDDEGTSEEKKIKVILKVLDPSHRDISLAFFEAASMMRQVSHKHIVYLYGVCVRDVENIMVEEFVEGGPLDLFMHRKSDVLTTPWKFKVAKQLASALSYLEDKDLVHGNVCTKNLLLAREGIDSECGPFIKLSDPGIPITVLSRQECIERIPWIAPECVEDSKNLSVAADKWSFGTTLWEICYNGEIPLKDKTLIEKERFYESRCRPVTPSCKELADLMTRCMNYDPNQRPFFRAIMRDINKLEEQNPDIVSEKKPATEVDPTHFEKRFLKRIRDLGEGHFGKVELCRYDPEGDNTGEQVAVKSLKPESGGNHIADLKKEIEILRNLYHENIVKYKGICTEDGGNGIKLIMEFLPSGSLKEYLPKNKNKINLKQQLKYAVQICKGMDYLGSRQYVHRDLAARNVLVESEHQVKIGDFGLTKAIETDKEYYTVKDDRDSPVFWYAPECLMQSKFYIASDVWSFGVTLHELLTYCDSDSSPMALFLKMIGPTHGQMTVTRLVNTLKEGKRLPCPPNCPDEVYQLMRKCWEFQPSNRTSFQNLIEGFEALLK

| SMILES | IC50 [1] [µM] | IC50 [2] [µM] | IC50 ([3]; Homo sapiens, PBMC) [µM] | IC50 ([4]; Homo sapiens, PBMC) [µM] | IC50 ([4]; human PBMC) [µM] | IC50 ([3]; human PBMC) [µM] |
| --- | --- | --- | --- | --- | --- | --- |
| CCOC(=O)c1cnc2[nH]ccc2c1N[C@@H]1CC[C@@H](O)C1 (single isomer, unassigned) [Example 72, (trans)-ethyl 4-((3-hydroxycyclopentyl)amino)-1H-pyrrolo [2,3-b]pyridine-5-carboxylate] | 0.01 to 0.1 | 0.01 to 0.1 | 0.1 to 1 | > 1 | – | – |
| CCOC(=O)c1cnc2[nH]ccc2c1N[C@H]1CC[C@H](OC(=O)CC#N)C1 (single isomer, unassigned) [Example 73, (trans)-ethyl 4-((3-(2-cyanoacetoxy)cyclopentyl)amino)-1H-pyrrolo [2,3-b]pyridine-5-carboxylate] | 0.01 to 0.1 | ≤ 0.01 | ≤ 0.1 | – | ≤ 0.1 | – |
| CCOC(=O)c1cnc2[nH]ccc2c1N[C@H]1CC[C@H](OC(=O)CC#N)C1 (single isomer, unassigned) [Example 74, (trans)-ethyl 4-((3-(2-cyanoacetoxy)cyclopentyl)amino)-1H-pyrrolo[2,3-b]pyridine-5-carboxylate] | 0.01 to 0.1 | 0.01 to 0.1 | – | – | > 1 | 0.1 to 1 |
| COCCOC(=O)c1cnc2[nH]ccc2c1N[C@H]1CCC[C@@H](CCC#N)C1 (single isomer, unassigned; enantiomer 1) [Example 149, cis-2-methoxyethyl 4-((3-(2-cyanoethyl)cyclohexyl)amino)-1H-pyrrolo[2,3-b]pyridine-5-carboxylate, enantiomer 1] | 0.01 to 0.1 | 0.1 to 1 | 0.1 to 1 | > 1 | – | – |
| CCOC(=O)c1cnc2[nH]ccc2c1N[C@@H]1CCC[C@H](CCC#N)C1 (single isomer, unassigned; enantiomer 2) [Example 136, (cis) ethyl 4-((3-(2-cyanoethyl)cyclohexyl)amino)-1H-pyrrolo[2,3-b]pyridine-5-carboxylate, enantiomer 2] | 0.01 to 0.1 | 0.01 to 0.1 | 0.1 to 1 | > 1 | – | – |
| CCOC(=O)c1cnc2[nH]ccc2c1N[C@H]1CCC[C@H](CCC#N)C1 (single isomer, unassigned; enantiomer 2) [Example 138, (trans)-ethyl 4-((3-(2-cyanoethyl)cyclohexyl)amino)-1H-pyrrolo[2,3-b]pyridine-5-carboxylate, enantiomer 2] | ≤ 0.01 | 0.01 to 0.1 | 0.1 to 1 | 0.1 to 1 | – | – |

More lines, main results first:

| IC50 [1] [µM] | IC50 [2] [µM] | IC50 ([3]; Homo sapiens, PBMC) [µM] | IC50 ([4]; Homo sapiens, PBMC) [µM] | SMILES | IC50 ([4]; human PBMC) [µM] | IC50 ([3]; human PBMC) [µM] |
| --- | --- | --- | --- | --- | --- | --- |
| 0.01 to 0.1 | 0.01 to 0.1 | 0.1 to 1 | > 1 | CCOC(=O)c1cnc2[nH]ccc2c1N[C@H]1CC[C@H](O)C1 (single isomer, unassigned) [Example 75, (trans)-ethyl 4-((3-hydroxycyclopentyl)amino)-1H-pyrrolo[2,3-b]pyridine-5-carboxylate] | – | – |
| ≤ 0.01 | ≤ 0.01 | ≤ 0.1 | ≤ 0.1 | CCOC(=O)c1cnc2[nH]ccc2c1N[C@H]1CCC[C@@H](CCC#N)C1 (single isomer, unassigned; enantiomer 1) [Example 135, (cis) ethyl 4-((3-(2-cyanoethyl)cyclohexyl)amino)-1H-pyrrolo[2,3-b]pyridine-5-carboxylate, enantiomer 1] | – | – |
| ≤ 0.01 | ≤ 0.01 | ≤ 0.1 | > 1 | CCOC(=O)c1cnc2[nH]ccc2c1N[C@@H]1CCC[C@@H](CCC#N)C1 (single isomer, unassigned; enantiomer 1) [Example 137, (trans) ethyl 4-((3-(2-cyanoethyl)cyclohexyl)amino)-1H-pyrrolo[2,3-b]pyridine-5-carboxylate enantiomer 1] | – | – |
| ≤ 0.01 | ≤ 0.01 | ≤ 0.1 | 0.1 to 1 | COCCOC(=O)c1cnc2[nH]ccc2c1N[C@@H]1CCC[C@H](CCC#N)C1 (single isomer, unassigned; enantiomer 2) [Example 150, cis 2-methoxyethyl 4-((3-(2-cyanoethyl)cyclohexyl)amino)-1H-pyrrolo[2,3-b]pyridine-5-carboxylate, enantiomer 2] | – | – |

— patent US10981906B2, “Substituted pyrrolopyridine JAK inhibitors and methods of making and using the same” (ACLARIS THERAPEUTICS, INC., priority 2017, dated 2021)
